Source: patent publication US9499534B2, “Thiazole-substituted aminopyrimidines as spleen tyrosine kinase inhibitors” (priority 2013, dated 2016)

Target: recombinant human GST-SYK (Homo sapiens (Human), UniProt P43405)
Experiment: Homogeneous Time-Resolved Fluorescence (HTRF) Assay for the Recombinant Human Syk Enzyme
Format: biochemical
Settings: GST-SYK 5 pM, ATP 25 μM, biotinylated substrate peptide 250 nM, HTRF signal
Description: Homogeneous Time-Resolved Fluorescence (HTRF) Assay for the Recombinant Human Syk Enzyme
A recombinant GST-hSYK fusion protein was used to measure potency of compounds to inhibit human Syk activity. The recombinant human GST-SYK (Carna Biosciences #08-176) (5 pM final concentration) was incubated with various concentrations of the inhibitor diluted in DMSO (0.1% final concentration) for 10 minutes at room temperature in 15 mM Tris-HCl (pH 7.5), 0.01% tween 20, 2 mM DTT in 384 well plate format. To initiate the reaction the biotinylated substrate peptide (250 nM final concentration) that contains the phosphorylation site for Syk was added with magnesium (5 mM final concentration) and ATP (25 μM final concentration). Final volume of the reaction was 10 μL. Phosphorylation of the peptide was allowed to proceed for 45′ at room temperature. To quench the reaction and detect the phosphorylated product, 2 nM of a Europium-anti-phosphotyrosine antibody (Perkin Elmer #AD0161) and 70 nM SA-APC (Perkin-Elmer #CR130-100) were added together in 15 mM Tris pH 7.5, 40 mM EDTA, 0.01% tween 20. Final volume of the quenching solution was 10 μL.
The resulting HTRF signal was measured after 30 minutes on an EnVision (Perkin-Elmer) reader using a time-resolved fluorescence protocol. Table A below lists activities as IC50 values (nM) for representative compounds of the invention.

IC50 | Compound
16.8 nM | CC(C)(C)/C=C\c1cc(Nc2nccc(C(F)(F)F)n2)cc(-c2cnc([C@]3(O)CC[C@@H](C(=O)O)C(C)(C)C3)s2)c1 (single isomer, unassigned) [Example 2.29, (1R,4S or 1S,4R)-4-[5-(3-[(1Z)-3,3-dimethylbut-1-en-1-yl]-5-{[4-(trifluoromethyl)pyrimidin-2-yl]amino}phenyl)-1,3-thiazol-2-yl]-4-hydroxy-2,2-dimethylcyclohexanecarboxylic acid]
48 nM | Cn1cc(-c2cc(Nc3nccc(C(F)(F)F)n3)cc(-c3cnc([C@@]4(O)CC[C@H](C(=O)O)C(C)(C)C4)s3)c2)cn1 (single isomer, unassigned) [Example 2.1, (1R,4S or 1S,4R)-4-Hydroxy-2,2-dimethyl-4-(5-(3-(1-methyl-1H-pyrazol-4-yl)-5-((4-(trifluoromethyl)pyrimidin-2-yl)amino)phenyl)thiazol-2-yl)cyclohexanecarboxylic acid]
1.29 nM | COc1cc(Nc2nccc(C(F)(F)F)n2)cc(-c2cnc([C@]3(O)CC[C@@H](C(=O)O)CC3)s2)c1 [Example 1.6, cis-4-Hydroxy-4-(5-(3-methoxy-5-((4-(trifluoromethyl)pyrimidine-2-yl)amino)phenyl)thiazol-2-yl)cyclohexanecarboxylic acid]
2.5 nM | CC1(C)C[C@@](O)(c2ncc(-c3cc(Nc4nccc(C(F)(F)F)n4)cc(-c4nccs4)c3)s2)CC[C@@H]1C(=O)O (single isomer, unassigned) [Example 3.1, (1R,4S or 1S,4R)-4-Hydroxy-2,2-dimethyl-4-(5-(3-(thiazol-2-yl)-5-((4-(trifluoromethyl)pyrimidin-2-yl)amino)phenyl)thiazol-2-yl)cyclohexanecarboxylic acid]
162 nM | CCOC(=O)[C@H]1CC[C@](O)(c2ncc(-c3cc(Nc4nccc(C(F)(F)F)n4)cc(-c4cn[nH]c4)c3)s2)C[C@H]1C (racemic) [Example 1.1, Ethyl rel-(1S,2R,4R or S)-4-(5-(3-(1H-pyrazol-4-yl)-5-((4-(trifluoromethyl)pyrimidin-2-yl)amino)phenyl)thiazol-2-yl)-4-hydroxy-2-methylcyclohexanecarboxylate]
1.56 nM | CC1(C)C[C@](O)(c2ncc(-c3cc(Nc4nccc(C(F)(F)F)n4)cc(-c4ccncc4)c3)s2)CC[C@H]1C(=O)O (single isomer, unassigned) [Example 2.5, (1R,4S or 1S,4R)-4-hydroxy-2,2-dimethyl-4-[5-(3-pyridin-4-yl-5-{[4-(trifluoromethyl)pyrimidin-2-yl]amino}phenyl)-1,3-thiazol-2-yl]cyclohexanecarboxylic acid]
1.4 nM | COc1cc(Nc2nccc(C(F)(F)F)n2)cc(-c2cnc([C@@]3(O)CC[C@H](C(=O)O)C(C)(C)C3)s2)c1 (single isomer, unassigned) [Example 1.5, (1R,4S or 1S,4R) 4-Hydroxy-4-(5-(3-methoxy-5-((4-(trifluoromethyl)pyrimidin-2-yl)amino)phenyl)thiazol-2-yl)-2,2-dimethylcyclohexanecarboxylic acid]
24.6 nM | Cc1cscc1-c1cc(Nc2nccc(C(F)(F)F)n2)cc(-c2cnc([C@]3(O)CC[C@@H](C(=O)O)C(C)(C)C3)s2)c1 (single isomer, unassigned) [Example 2.24, (1R,4S or 1S,4R)-4-hydroxy-2,2-dimethyl-4-{5-[3-(4-methylthiophen-3-yl)-5-{[4-(trifluoromethyl)pyrimidin-2-yl]amino}phenyl]-1,3-thiazol-2-yl}cyclohexanecarboxylic acid]
1.11 nM | CC1(C)C[C@](O)(c2ncc(-c3cc(Nc4nccc(C(F)(F)F)n4)cc(-c4cc[nH]n4)c3)s2)CC[C@H]1C(=O)O (single isomer, unassigned) [Example 2.11, (1R,4S or 1S,4R)-4-hydroxy-2,2-dimethyl-4-{5-[3-(1H-pyrazol-3-yl)-5-{[4-(trifluoromethyl)pyrimidin-2-yl]amino}phenyl]-1,3-thiazol-2-yl}cyclohexanecarboxylic acid]
17.6 nM | CC1(C)C[C@](O)(c2ncc(-c3cc(Nc4nccc(C(F)(F)F)n4)cc(C4=CCCCC4)c3)s2)CC[C@H]1C(=O)O (single isomer, unassigned) [Example 2.21, (1R,4S or 1S,4R)-4-[5-(3-cyclohex-1-en-1-yl-5-{[4-(trifluoromethyl)pyrimidin-2-yl]amino}phenyl)-1,3-thiazol-2-yl]-4-hydroxy-2,2-dimethylcyclohexanecarboxylic acid]
77.7 nM | OC1(c2ncc(-c3cc(Nc4nccc(C(F)(F)F)n4)cc(-c4nnn[nH]4)c3)s2)CCC1 [Example 1.4, 1-(5-(3-(1H-Tetrazol-5-yl)-5-((4-(trifluoromethyl)pyrimidin-2-yl)amino)phenyl)thiazol-2-yl)cyclobutanol]
3.68 nM | COc1ccc(-c2cc(Nc3nccc(C(F)(F)F)n3)cc(-c3cnc([C@]4(O)CC[C@@H](C(=O)O)C(C)(C)C4)s3)c2)cn1 (single isomer, unassigned) [Example 2.7, (1R,4S or 1S,4R)-4-hydroxy-4-{5-[3-(6-methoxypyridin-3-yl)-5-{[4-(trifluoromethyl)pyrimidin-2-yl]amino}phenyl]-1,3-thiazol-2-yl}-2,2-dimethylcyclohexanecarboxylic acid]
0.959 nM | C[C@@H]1C[C@@](O)(c2ncc(-c3cc(Nc4nccc(C(F)(F)F)n4)cc(-c4cn[nH]c4)c3)s2)CC[C@@H]1C(=O)O (racemic) [Example 1.2, rel-(1S,2R,4R or S)-4-(5-(3-(1H-pyrazol-4-yl)-5-((4-(trifluoromethyl)pyrimidin-2-yl)amino)phenyl)thiazol-2-yl)-4-hydroxy-2-methylcyclohexanecarboxylic acid]
3.22 nM | CC1(C)C[C@](O)(c2ncc(-c3cc(Nc4nccc(C(F)(F)F)n4)cc(-c4cncc(F)c4)c3)s2)CC[C@H]1C(=O)O (single isomer, unassigned) [Example 2.15, (1R,4S or 1S,4R)-4-{5-[3-(5-fluoropyridin-3-yl)-5-{[4-(trifluoromethyl)pyrimidin-2-yl]amino}phenyl]-1,3-thiazol-2-yl}-4-hydroxy-2,2-dimethylcyclohexanecarboxylic acid]
4.06 nM | CC1(C)C[C@](O)(c2ncc(-c3cc(/C=C\C4CC4)cc(Nc4nccc(C(F)(F)F)n4)c3)s2)CC[C@H]1C(=O)O (single isomer, unassigned) [Example 2.27, (1R,4S or 1S,4R)-4-[5-(3-[(Z)-2-cyclopropylethenyl]-5-{[4-(trifluoromethyl)pyrimidin-2-yl]amino}phenyl)-1,3-thiazol-2-yl]-4-hydroxy-2,2-dimethylcyclohexanecarboxylic acid]

Compound | IC50
CC1(C)C[C@](O)(c2ncc(-c3cc(Nc4nccc(C(F)(F)F)n4)cc(-c4ccc(F)cc4)c3)s2)CC[C@H]1C(=O)O (single isomer, unassigned) [Example 2.6, (1R,4S or 1S,4R)-4-[5-(4′-fluoro-5-{[4-(trifluoromethyl)pyrimidin-2-yl]amino}biphenyl-3-yl)-1,3-thiazol-2-yl]-4-hydroxy-2,2-dimethylcyclohexanecarboxylic acid] | 20.7 nM
CC1(C)C[C@](O)(c2ncc(-c3cc(Nc4nccc(C(F)(F)F)n4)cc(-c4ccc(C#N)c(F)c4)c3)s2)CC[C@H]1C(=O)O (single isomer, unassigned) [Example 3.3, (1R,4S or 1S,4R)-4-[5-(4′-cyano-3′-fluoro-5-{[4-(trifluoromethyl)pyrimidin-2-yl]amino}biphenyl-3-yl)-1,3-thiazol-2-yl]-4-hydroxy-2,2-dimethylcyclohexanecarboxylic acid] | 34.8 nM
Cc1cc(-c2cc(Nc3nccc(C(F)(F)F)n3)cc(-c3cnc([C@]4(O)CC[C@@H](C(=O)O)C(C)(C)C4)s3)c2)ccc1F (single isomer, unassigned) [Example 2.16, (1R,4S or 1S,4R)-4-[5-(4′-fluoro-3′-methyl-5-{[4-(trifluoromethyl)pyrimidin-2-yl]amino}biphenyl-3-yl)-1,3-thiazol-2-yl]-4-hydroxy-2,2-dimethylcyclohexanecarboxylic acid] | 153 nM
CC/C=C\c1cc(Nc2nccc(C(F)(F)F)n2)cc(-c2cnc([C@]3(O)CC[C@@H](C(=O)O)C(C)(C)C3)s2)c1 (single isomer, unassigned) [Example 2.26, (1R,4S or 1S,4R)-4-[5-(3-[(1Z)-but-1-en-1-yl]-5-{[4-(trifluoromethyl)pyrimidin-2-yl]amino}phenyl)-1,3-thiazol-2-yl]-4-hydroxy-2,2-dimethylcyclohexanecarboxylic acid] | 2.68 nM
CC1(C)C[C@](O)(c2ncc(-c3cc(Nc4nccc(C(F)(F)F)n4)cc(-c4ccc(N)nc4)c3)s2)CC[C@H]1C(=O)O (single isomer, unassigned) [Example 2.19, (1R,4S or 1S,4R)-4-{5-[3-(6-aminopyridin-3-yl)-5-{[4-(trifluoromethyl)pyrimidin-2-yl]amino}phenyl]-1,3-thiazol-2-yl}-4-hydroxy-2,2-dimethylcyclohexanecarboxylic acid] | 1.29 nM
